The structures appear in SMILES notation. Active and inactive are the calls of the source. The calls are words filed in the database; no cut-off is given here.

Sequence of Phospholipase C (Bacillus cereus) (P09598 whole entry, looked up): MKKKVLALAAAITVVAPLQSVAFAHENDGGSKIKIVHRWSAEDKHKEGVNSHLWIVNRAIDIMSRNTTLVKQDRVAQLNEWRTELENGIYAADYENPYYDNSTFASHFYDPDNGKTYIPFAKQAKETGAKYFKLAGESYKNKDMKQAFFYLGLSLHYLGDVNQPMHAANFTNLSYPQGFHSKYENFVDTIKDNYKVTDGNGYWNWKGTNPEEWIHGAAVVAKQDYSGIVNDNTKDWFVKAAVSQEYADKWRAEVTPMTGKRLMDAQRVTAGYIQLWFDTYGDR

This assay has as its target Phospholipase C (Bacillus cereus) (UniProt P09598). The experiment in a line: Inhibition of recombinant Bacillus cereus N-terminal His6-tagged full length PC-PLC 3C Protease cleavage site expressed in Escherichia coli BL21(DE3) cells at 10 uM using phosphatidylcholine as substrate by amplex red assay relative to control.
Usually inhibition stands for the percentage by which the read-out fell short of the control. In the case of `O=C(O)c1cc(NCc2cccc(Br)c2)ccc1N1CCOCC1`, the inhibition is 80%. The same measure for `CN1CCN(c2ccc(NCc3cccc(Br)c3)cc2C(=O)O)CC1`: “inactive”. Then `O=C(O)c1cc(NCc2ccc(Cl)cc2Cl)ccc1N1CCOCC1`, with 65%; and `O=C(O)c1cc(NCc2ccccc2C(F)(F)F)ccc1N1CCOCC1`, with “inactive”. The same measure for `O=C(O)C1Cc2c([nH]c3ccccc23)C(c2ccc(O)c(O)c2)N1` (stereo not drawn): 75%.

In the case of `COc1cccc(C(=O)Nc2ccc(O)cc2C(=O)O)c1`, the inhibition was 47%.

For `O=C(O)c1cccc(NS(=O)(=O)c2ccc(C3CCCCC3)cc2)c1`, the inhibition came to 25%.

As to `COc1cc(C2NC(C(=O)O)Cc3c2[nH]c2ccccc32)cc(OC)c1O` (stereo not drawn), the inhibition was found to be 60%. Then `O=C(O)c1cc(NCc2cccc(Cl)c2)ccc1N1CCOCC1`, with 89%. The same measure for `CSc1ccc(CNc2ccc(N3CCOCC3)c(C(=O)O)c2)cc1`: “inactive”; for `O=C(O)c1cc(NCc2ccccc2Cl)ccc1N1CCOCC1`: 89%. Then `O=C(O)c1cc(NCc2ccccc2)ccc1N1CCOCC1`, with 67%. As to `O=C(O)c1ccccc1N1CCOCC1`, the inhibition result is “inactive”. For the compound `O=C(O)C1Cc2c([nH]c3ccccc23)C(c2ccc(C(F)(F)F)cc2)N1` (stereo not drawn), the inhibition was found to be 37%. Then `CN(C)c1ccc(C2NC(C(=O)O)Cc3c2[nH]c2ccccc32)cc1` (stereo not drawn), with 43%; and `Cc1[nH]c2ccc(Cl)cc2c1CC(=O)O`, with 65%; and `Cc1[nH]c2ccc(C(=O)O)cc2c1CC(=O)O`, with 60%.

As for `O=C(O)C1Cc2c([nH]c3ccccc23)C(c2ccc(Cl)cc2Cl)N1` (stereo not drawn), the inhibition came to 44%.

The values are drawn from ChEMBL document CHEMBL4706483, “Discovery of novel phosphatidylcholine-specific phospholipase C drug-like inhibitors as potential anticancer agents” (Eur J Med Chem, 2020).
